The text below walks through data of patent EP4763868A1, “RECOMBINANT PTH FUSION PROTEIN, CONSTRUCTION METHOD THEREFOR, AND APPLICATION THEREOF” (KANGZHONG (GUANGDONG) INC., priority 2024, dated 2025).

For data set [1] the following is noted: cited from earlier work.
The target of the next data set is T1, PTHR1 on UMR-106 cells (UniProt P25961 27-591, limits assumed).
T1 sequence (looked up): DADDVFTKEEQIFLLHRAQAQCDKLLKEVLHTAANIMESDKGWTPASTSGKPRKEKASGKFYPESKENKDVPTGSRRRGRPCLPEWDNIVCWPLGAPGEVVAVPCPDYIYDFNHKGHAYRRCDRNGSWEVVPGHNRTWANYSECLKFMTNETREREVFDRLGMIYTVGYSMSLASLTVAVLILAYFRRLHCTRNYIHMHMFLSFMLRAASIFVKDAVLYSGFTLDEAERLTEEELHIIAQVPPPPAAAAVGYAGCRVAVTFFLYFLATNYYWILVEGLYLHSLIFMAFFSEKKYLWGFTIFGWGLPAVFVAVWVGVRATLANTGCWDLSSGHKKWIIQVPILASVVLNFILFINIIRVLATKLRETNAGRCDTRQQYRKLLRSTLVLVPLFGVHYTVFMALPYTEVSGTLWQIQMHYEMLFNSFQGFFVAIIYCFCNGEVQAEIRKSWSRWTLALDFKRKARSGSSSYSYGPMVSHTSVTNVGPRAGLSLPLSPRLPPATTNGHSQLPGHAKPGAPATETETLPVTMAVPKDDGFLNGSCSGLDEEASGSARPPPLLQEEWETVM
The experiment in a line: cell-based or functional assay.

In general, half-life refers to the time needed for the level to fall by half in the phase considered. In the case of `CC[C@H](C)[C@H](NC(=O)[C@H](CCC(=O)O)NC(=O)[C@H](CO)NC(=O)[C@@H](NC(=O)[C@@H](N)CO)C(C)C)C(=O)N[C@@H](CCC(N)=O)C(=O)N[C@@H](CC(C)C)C(=O)N[C@@H](CCSC)C(=O)N[C@@H](Cc1cnc[nH]1)C(=O)N[C@@H](CC(N)=O)C(=O)N[C@@H](CC(C)C)C(=O)NCC(=O)N[C@@H](CCCCN)C(=O)N[C@@H](Cc1cnc[nH]1)C(=O)N[C@@H](CC(C)C)C(=O)N[C@@H](CC(N)=O)C(=O)N[C@@H](CO)C(=O)N[C@@H](CCSC)C(=O)N[C@@H](CCC(=O)O)C(=O)N[C@@H](CCCN=C(N)N)C(=O)N[C@H](C(=O)N[C@@H](CCC(=O)O)C(=O)N[C@@H](Cc1c[nH]c2ccccc12)C(=O)N[C@@H](CC(C)C)C(=O)N[C@@H](CCCN=C(N)N)C(=O)N[C@@H](CCCCN)C(=O)N[C@@H](CCCCN)C(=O)N[C@@H](CC(C)C)C(=O)N[C@@H](CCC(N)=O)C(=O)N[C@@H](CC(=O)O)C(=O)N[C@H](C(=O)N[C@@H](Cc1cnc[nH]1)C(=O)N[C@@H](CC(N)=O)C(=O)N[C@@H](Cc1ccccc1)C(=O)O)C(C)C)C(C)C` [TP(PTH(1-34)), teriparatide], the half-life in data set [1] (human, in vivo) was 30 min.

For “Transcon PTH(1-34): polyethylene glycol (PEG)-conjugated prodrug of PTH(1-34) by Ascendis Pharma A/S”, the “time for which serum calcium is maintained at normal physiological levels” value in data set [1] (patients, after administration) is given as ≤ 24 hours.

In the data set with PTHR1 on UMR-106 cells, “triple-ECD-binding fusion protein T002G-K” returned an EC50, biological activity (pGL4.29 reporter, fluorescence intensity) of 61.4 pM.

B1: human serum albumin nanobody NbHSA (VHH)
VHH: QVQLVESGGGLVQTGGSLRLSCAASGSTLVGHSVGFFRQAPGKEREPVVCISSTETVMYYTNSVKGRFTISRDNAKNTVWLQMDRLAPEDTAVYYCAARPQLCSALDYRYNSWGPGTQVTVSS
For B1, the “EC50, biological activity (pGL4.29 reporter, fluorescence intensity)” value in the data set with PTHR1 on UMR-106 cells was determined as 0 pM.
